“And” between values parts separate entries of the source, which are not always exact repeats. Equal entries are not always repeated. Toxic doses and inconclusive results are not listed.
System: BDF1 mice, P388 leukemia ip, median survival T/C
Experiment: NCI In Vivo Anticancer Drug Screen. Data for tumor model P388 Leukemia (intraperitoneal) in B6D2F1 (BDF1) mice
Conditions: endpoint: median survival time, higher = longer survival
Outline: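 Reported as T/C, where T is the survival measurement in dosed animals and C the same measurement in vehicle controls.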

[1] = dose: 200.0 mg/kg/injection, schedule: Q04DX003 (ip), vehicle: other
[2] = dose: 400.0 mg/kg/injection, schedule: Q04DX003 (ip), vehicle: other
[3] = dose: 200.0 mg/kg/injection, schedule: Q04DX003 (ip), vehicle: Klucel (hydroxypropylcellulose) (HPC)
[4] = dose: 400.0 mg/kg/injection, schedule: Q04DX003 (ip), vehicle: Klucel (hydroxypropylcellulose) (HPC)
[5] = dose: 100.0 mg/kg/injection, schedule: Q04DX003 (ip), vehicle: Klucel (hydroxypropylcellulose) (HPC)
[6] = dose: 100.0 mg/kg/injection, schedule: Q04DX003 (ip), vehicle: saline with Tween-80

CCCCCCCCCCCCCCCCSc1ccc(C)cc1
T/C (dose: 5.0 mg/kg/injection, schedule: Q04DX003 (ip), vehicle: saline sonified): 105 % of control
T/C (dose: 10.0 mg/kg/injection, schedule: Q04DX003 (ip), vehicle: saline sonified): 105 % of control
T/C (dose: 20.0 mg/kg/injection, schedule: Q04DX003 (ip), vehicle: saline sonified): 100 % of control
T/C [1]: 100 % of control
T/C [2]: 100 % of control

COc1cccc2c1C(=O)c1c(O)c3c(c(O)c1C2=O)C[C@@](O)(/C(CO)=N/NC(=O)c1ccc(Cl)c(Cl)c1)C[C@@H]3OC1CC(N)C(O)C(C)O1 (some centres undefined)
T/C (dose: 0.78 mg/kg/injection, schedule: Q01DX009 (ip), vehicle: water): 94 % of control
T/C (dose: 3.12 mg/kg/injection, schedule: Q01DX009 (ip), vehicle: water): 116 % of control and 217 % of control
T/C (dose: 6.25 mg/kg/injection, schedule: Q01DX009 (ip), vehicle: water): 121 % of control

O=C1OC2C(I)C3CCC2C1C3 (centres undefined)
T/C (dose: 100.0 mg/kg/injection, schedule: Q01DX009 (ip), vehicle: saline): 105 % of control
T/C (dose: 100.0 mg/kg/injection, schedule: Q04DX003 (ip), vehicle: saline): 121 % of control
T/C (dose: 200.0 mg/kg/injection, schedule: Q01DX009 (ip), vehicle: saline): 115 % of control
T/C (dose: 200.0 mg/kg/injection, schedule: Q04DX003 (ip), vehicle: saline): 95 % of control
T/C (dose: 400.0 mg/kg/injection, schedule: Q04DX003 (ip), vehicle: saline): 95 % of control

COc1cc([C@@H]2c3cc4c(cc3[C@H](O)[C@H]3COC(=O)[C@@H]23)OCO4)cc(OC)c1OC
T/C (dose: 7.7 mg/kg/injection, schedule: Q01DX010 (ip), vehicle: carboxymethylcellulose (CMC)): 115 % of control
T/C (dose: 12.0 mg/kg/injection, schedule: Q01DX009 (ip), vehicle: Klucel (hydroxypropylcellulose) (HPC)): 166 % of control
T/C (dose: 18.0 mg/kg/injection, schedule: Q01DX009 (ip), vehicle: Klucel (hydroxypropylcellulose) (HPC)): 185 % of control
T/C (dose: 27.0 mg/kg/injection, schedule: Q01DX009 (ip), vehicle: Klucel (hydroxypropylcellulose) (HPC)): 195 % of control
T/C (dose: 30.8 mg/kg/injection, schedule: Q01DX010 (ip), vehicle: carboxymethylcellulose (CMC)): 210 % of control
T/C (dose: 37.5 mg/kg/injection, schedule: Q04DX003 (ip), vehicle: saline sonified): 113 % of control
T/C (dose: 40.0 mg/kg/injection, schedule: Q01DX009 (ip), vehicle: Klucel (hydroxypropylcellulose) (HPC)): 233 % of control
T/C (dose: 60.0 mg/kg/injection, schedule: Q01DX009 (ip), vehicle: Klucel (hydroxypropylcellulose) (HPC)): 252 % of control
T/C (dose: 75.0 mg/kg/injection, schedule: Q04DX003 (ip), vehicle: saline sonified): 122 % of control
T/C (dose: 150.0 mg/kg/injection, schedule: Q04DX003 (ip), vehicle: saline sonified): 180 % of control and 204 % of control
T/C (dose: 225.0 mg/kg/injection, schedule: Q04DX003 (ip), vehicle: saline sonified): 300 % of control

C[CH2][Pb]([CH2]C)([CH2]C)[O]C(=O)COC
T/C (dose: 0.78 mg/kg/injection, schedule: Q01DX009 (ip), vehicle: Klucel (hydroxypropylcellulose) (HPC)): 115 % of control
T/C (dose: 1.56 mg/kg/injection, schedule: Q01DX009 (ip), vehicle: Klucel (hydroxypropylcellulose) (HPC)): 98 % of control
T/C (dose: 3.13 mg/kg/injection, schedule: Q01DX009 (ip), vehicle: Klucel (hydroxypropylcellulose) (HPC)): 121 % of control

Cc1cc(N)c2cc(NC(=O)CCCCCCCCC(=O)Nc3ccc4nc(C)cc(N)c4c3)ccc2n1
T/C (dose: 5.5 mg/kg/injection, schedule: Q01DX009 (ip), vehicle: Klucel (hydroxypropylcellulose) (HPC)): 108 % of control
T/C (dose: 8.2 mg/kg/injection, schedule: Q01DX009 (ip), vehicle: Klucel (hydroxypropylcellulose) (HPC)): 121 % of control
T/C (dose: 8.3 mg/kg/injection, schedule: Q04DX003 (ip), vehicle: Klucel (hydroxypropylcellulose) (HPC)): 91 % of control
T/C (dose: 12.0 mg/kg/injection, schedule: Q04DX003 (ip), vehicle: Klucel (hydroxypropylcellulose) (HPC)): 104 % of control
T/C (dose: 45.0 mg/kg/injection, schedule: Q04DX003 (ip), vehicle: Klucel (hydroxypropylcellulose) (HPC)): 150 % of control
T/C (dose: 50.0 mg/kg/injection, schedule: Q01DX009 (ip), vehicle: Klucel (hydroxypropylcellulose) (HPC)): 186 % of control
T/C (dose: 80.0 mg/kg/injection, schedule: Q04DX003 (ip), vehicle: Klucel (hydroxypropylcellulose) (HPC)): 168 % of control
T/C (dose: 100.0 mg/kg/injection, schedule: Q04DX003 (ip), vehicle: other): 172 % of control
T/C (dose: 120.0 mg/kg/injection, schedule: Q04DX003 (ip), vehicle: Klucel (hydroxypropylcellulose) (HPC)): 172 % of control
T/C (dose: 180.0 mg/kg/injection, schedule: Q04DX003 (ip), vehicle: Klucel (hydroxypropylcellulose) (HPC)): 177 % of control
T/C [3]: 150 % of control
T/C [1]: 181 % of control
T/C (dose: 264.0 mg/kg/injection, schedule: Q04DX003 (ip), vehicle: Klucel (hydroxypropylcellulose) (HPC)): 227 % of control
T/C (dose: 400.0 mg/kg/injection, schedule: Q01DX009 (ip), vehicle: Klucel (hydroxypropylcellulose) (HPC)): 160 % of control
T/C [4]: 261 % of control and 160 % of control
T/C [2]: 186 % of control

c1ccc(COc2ccccn2)cc1
T/C (dose: 25.0 mg/kg/injection, schedule: Q04DX003 (ip), vehicle: Klucel (hydroxypropylcellulose) (HPC)): 90 % of control
T/C (dose: 50.0 mg/kg/injection, schedule: Q04DX003 (ip), vehicle: Klucel (hydroxypropylcellulose) (HPC)): 95 % of control
T/C [5]: 90 % of control

C1=CC2C3=CC1C=CC32 (centres undefined)
T/C (dose: 18.75 mg/kg/injection, schedule: Q04DX003 (ip), vehicle: Klucel (hydroxypropylcellulose) (HPC)): 91 % of control
T/C (dose: 37.5 mg/kg/injection, schedule: Q04DX003 (ip), vehicle: Klucel (hydroxypropylcellulose) (HPC)): 95 % of control
T/C (dose: 75.0 mg/kg/injection, schedule: Q04DX003 (ip), vehicle: Klucel (hydroxypropylcellulose) (HPC)): 91 % of control

Oc1ccc2ccccc2c1/C=N\Sc1ccc(Br)cc1
T/C (dose: 25.0 mg/kg/injection, schedule: Q04DX003 (ip), vehicle: saline with Tween-80): 103 % of control
T/C (dose: 50.0 mg/kg/injection, schedule: Q04DX003 (ip), vehicle: saline with Tween-80): 100 % of control
T/C [6]: 112 % of control

CNC(=O)C(C)C1C(=O)/C(=C(O)/C=C\C(C)=C\C(C)C2OC3(C)OC(C=CC34CO4)C2C)C(=O)N1C1CCC(O)C(C)O1 (centres undefined)
T/C (dose: 100.0 mg/kg/injection, schedule: Q01DX009 (ip), vehicle: saline with Tween-80): 109 % of control
T/C (dose: 200.0 mg/kg/injection, schedule: Q01DX009 (ip), vehicle: saline with Tween-80): 100 % of control
T/C (dose: 400.0 mg/kg/injection, schedule: Q01DX009 (ip), vehicle: saline with Tween-80): 109 % of control

O=C(Nc1ccccc1)Nc1ccc([N+](=O)[O-])cc1
T/C [5]: 105 % of control
T/C [3]: 110 % of control
T/C [4]: 105 % of control

CCN1C=C/C(=C/c2cc3scc(-c4ccccc4)[n+]3c3ccccc23)c2ccccc21
T/C (dose: 0.08 mg/kg/injection, schedule: Q01DX009 (ip), vehicle: saline): 100 % of control
T/C (dose: 0.16 mg/kg/injection, schedule: Q01DX009 (ip), vehicle: saline): 108 % of control
T/C (dose: 0.32 mg/kg/injection, schedule: Q01DX009 (ip), vehicle: saline): 120 % of control

CC1(C)N=C(N)N=C(N)N1c1cccc(Cl)c1
T/C (dose: 1.9 mg/kg/injection, schedule: Q04DX003 (ip), vehicle: saline): 104 % of control
T/C (dose: 2.9 mg/kg/injection, schedule: Q04DX003 (ip), vehicle: saline): 100 % of control
T/C (dose: 10.0 mg/kg/injection, schedule: Q04DX003 (ip), vehicle: saline): 113 % of control
T/C (dose: 18.0 mg/kg/injection, schedule: Q01DX009 (ip), vehicle: saline): 195 % of control
T/C (dose: 18.7 mg/kg/injection, schedule: Q01DX009 (ip), vehicle: saline): 168 % of control
T/C (dose: 28.0 mg/kg/injection, schedule: Q01DX009 (ip), vehicle: saline): 160 % of control and 209 % of control
T/C (dose: 37.5 mg/kg/injection, schedule: Q04DX003 (ip), vehicle: saline): 175 % of control and 177 % of control
T/C (dose: 40.0 mg/kg/injection, schedule: Q01DX009 (ip), vehicle: saline): 95 % of control
T/C (dose: 42.0 mg/kg/injection, schedule: Q01DX009 (ip), vehicle: saline): 213 % of control
T/C (dose: 56.25 mg/kg/injection, schedule: Q04DX003 (ip), vehicle: saline): 150 % of control

O=C1CN=C(c2ccccn2)c2cc(Cl)ccc2N1CCO
T/C [6]: 105 % of control
T/C (dose: 200.0 mg/kg/injection, schedule: Q04DX003 (ip), vehicle: saline with Tween-80): 110 % of control
T/C (dose: 400.0 mg/kg/injection, schedule: Q04DX003 (ip), vehicle: saline with Tween-80): 115 % of control

Reference: PubChem BioAssay AID328 (DTP/NCI, 2004)
